How the values were obtained:
[1] = tested on: Human T lymphocytic leukemia cell line: Jurkat; test: Tumor cell proliferation inhibition (CellTiter-Meiluncell luminescent cell viability assay); conditions: 96 h; for inhibition at 0.01 µM: read-out: Inhibition Rate at 10 nM (%); for inhibition at 0.5 µM: read-out: Inhibition Rate at 500 nM (%)
[2] = target: T1, human Cereblon WT GST-tagged protein (Homo sapiens, UniProt Q96SW2); test: CRBN-binding affinity, HTRF (CEREBLON BINDING kit); conditions: for inhibition at 0.5 µM: read-out: Inhibition Rate at 0.5 µM (%); for inhibition at 2 µM: read-out: Inhibition Rate at 2 µM (%)
T1 construct: purchased CISBIO 64BDCRBNPEH
T1 sequence (Q96SW2 whole entry): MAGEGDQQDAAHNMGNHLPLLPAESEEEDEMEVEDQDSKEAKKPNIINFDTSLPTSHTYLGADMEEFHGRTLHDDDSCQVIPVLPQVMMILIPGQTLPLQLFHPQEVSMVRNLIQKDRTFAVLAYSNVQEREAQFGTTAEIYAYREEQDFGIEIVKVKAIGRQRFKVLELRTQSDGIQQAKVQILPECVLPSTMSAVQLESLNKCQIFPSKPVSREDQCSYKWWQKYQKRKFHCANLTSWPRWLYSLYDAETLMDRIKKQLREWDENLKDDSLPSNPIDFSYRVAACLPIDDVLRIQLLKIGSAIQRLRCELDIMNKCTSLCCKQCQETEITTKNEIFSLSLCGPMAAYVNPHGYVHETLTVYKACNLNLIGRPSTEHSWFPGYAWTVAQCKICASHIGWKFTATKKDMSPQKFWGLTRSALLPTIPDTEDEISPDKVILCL

[3] = tested on: Human acute T lymphocytic leukemia cell (Molt4); test: Tumor cell proliferation inhibition (CellTiter-Meiluncell luminescent cell viability assay); conditions: MOLT-4, 96 h; for inhibition at 0.01 µM: read-out: Inhibition Rate at 10 nM (%); for inhibition at 0.5 µM: read-out: Inhibition Rate at 500 nM (%)
[4] = target: T2, IKZF3 (Homo sapiens, UniProt Q96SW2+Q9UKT9); test: Western blot, degradation of substrate protein in hPBMCs; type: cell-based
T2 construct: effects of the compounds of the present disclosure on the expression of target proteins in cells; endogenous in cells; host or cells: human PBMCs (Milecell Biotechnologies)
T2 sequence (Q9UKT9 whole entry): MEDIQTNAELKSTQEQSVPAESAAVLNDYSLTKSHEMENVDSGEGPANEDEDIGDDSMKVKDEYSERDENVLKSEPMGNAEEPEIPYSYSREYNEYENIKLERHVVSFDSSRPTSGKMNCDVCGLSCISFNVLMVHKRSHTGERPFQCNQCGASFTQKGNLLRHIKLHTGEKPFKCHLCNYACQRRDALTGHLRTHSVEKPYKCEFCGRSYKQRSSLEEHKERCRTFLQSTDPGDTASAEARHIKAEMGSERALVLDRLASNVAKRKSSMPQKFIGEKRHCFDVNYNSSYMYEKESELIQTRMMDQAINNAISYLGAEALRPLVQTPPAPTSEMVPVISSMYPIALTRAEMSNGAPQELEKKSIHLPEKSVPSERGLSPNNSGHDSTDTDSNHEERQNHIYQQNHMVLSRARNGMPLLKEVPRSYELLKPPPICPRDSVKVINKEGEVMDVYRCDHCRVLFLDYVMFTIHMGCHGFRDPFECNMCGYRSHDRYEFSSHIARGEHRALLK
T2 sequence (Q96SW2 whole entry): as the sequence (Q96SW2 whole entry) above
T2 sequence (Q16531 whole entry partner): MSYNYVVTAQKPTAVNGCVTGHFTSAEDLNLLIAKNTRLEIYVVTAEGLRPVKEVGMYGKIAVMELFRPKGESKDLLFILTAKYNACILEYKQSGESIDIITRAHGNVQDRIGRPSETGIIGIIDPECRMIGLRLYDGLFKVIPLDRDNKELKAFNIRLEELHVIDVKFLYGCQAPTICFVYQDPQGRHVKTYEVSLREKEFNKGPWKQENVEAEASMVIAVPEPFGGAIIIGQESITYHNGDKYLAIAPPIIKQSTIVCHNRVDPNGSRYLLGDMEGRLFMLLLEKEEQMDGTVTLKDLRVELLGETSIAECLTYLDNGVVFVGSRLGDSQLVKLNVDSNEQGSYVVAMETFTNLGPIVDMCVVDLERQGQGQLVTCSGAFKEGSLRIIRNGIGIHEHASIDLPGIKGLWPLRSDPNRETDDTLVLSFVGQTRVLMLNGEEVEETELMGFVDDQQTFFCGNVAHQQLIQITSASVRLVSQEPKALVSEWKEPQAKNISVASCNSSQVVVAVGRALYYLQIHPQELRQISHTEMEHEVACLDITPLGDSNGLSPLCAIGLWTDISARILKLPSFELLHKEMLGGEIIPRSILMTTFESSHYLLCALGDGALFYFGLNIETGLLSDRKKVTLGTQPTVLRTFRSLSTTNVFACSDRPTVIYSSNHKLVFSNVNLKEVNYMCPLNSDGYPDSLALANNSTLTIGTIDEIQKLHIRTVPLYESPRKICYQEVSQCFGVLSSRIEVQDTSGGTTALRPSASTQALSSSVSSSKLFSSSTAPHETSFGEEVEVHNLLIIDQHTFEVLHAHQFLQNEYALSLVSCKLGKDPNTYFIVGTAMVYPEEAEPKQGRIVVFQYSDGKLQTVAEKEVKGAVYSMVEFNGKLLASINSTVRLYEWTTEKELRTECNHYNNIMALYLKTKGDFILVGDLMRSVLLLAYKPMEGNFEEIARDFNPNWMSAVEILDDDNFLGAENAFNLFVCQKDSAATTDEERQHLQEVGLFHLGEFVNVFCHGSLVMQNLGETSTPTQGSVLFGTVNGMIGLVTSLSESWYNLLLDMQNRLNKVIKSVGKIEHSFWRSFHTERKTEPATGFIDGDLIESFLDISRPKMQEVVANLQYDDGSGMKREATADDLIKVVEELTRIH

[5] = target: T3, WEE1 (Homo sapiens, UniProt P30291+Q96SW2); test: as above; type: cell-based
T3 construct: effects of the compounds of the present disclosure on the expression of target proteins in cells; endogenous in cells; host or cells: human PBMCs (Milecell Biotechnologies)
T3 sequence (P30291 whole entry): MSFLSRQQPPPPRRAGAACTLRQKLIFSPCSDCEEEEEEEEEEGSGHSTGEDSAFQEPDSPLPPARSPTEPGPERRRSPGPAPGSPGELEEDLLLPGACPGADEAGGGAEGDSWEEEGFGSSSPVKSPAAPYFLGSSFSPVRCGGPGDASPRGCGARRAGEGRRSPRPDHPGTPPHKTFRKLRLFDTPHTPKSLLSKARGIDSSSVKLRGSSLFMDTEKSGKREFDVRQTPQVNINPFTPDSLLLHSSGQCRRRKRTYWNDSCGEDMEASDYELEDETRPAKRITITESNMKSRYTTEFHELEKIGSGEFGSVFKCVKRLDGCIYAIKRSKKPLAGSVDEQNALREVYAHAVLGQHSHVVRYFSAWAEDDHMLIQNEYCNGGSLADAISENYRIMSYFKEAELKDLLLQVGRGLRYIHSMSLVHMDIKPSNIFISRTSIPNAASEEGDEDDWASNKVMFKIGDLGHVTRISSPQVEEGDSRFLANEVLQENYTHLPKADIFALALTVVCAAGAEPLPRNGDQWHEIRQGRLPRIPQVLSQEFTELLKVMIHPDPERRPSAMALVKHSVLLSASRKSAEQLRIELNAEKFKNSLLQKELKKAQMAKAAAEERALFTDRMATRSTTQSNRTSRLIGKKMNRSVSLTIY
T3 sequence (Q96SW2 whole entry): as the sequence (Q96SW2 whole entry) above
T3 sequence (Q16531 whole entry partner): as the sequence (Q16531 whole entry partner) above

[6] = target: T4, IKZF1 (Homo sapiens, UniProt Q13422+Q96SW2); test: as above; type: cell-based
T4 construct: effects of the compounds of the present disclosure on the expression of target proteins in cells; endogenous in cells; host or cells: human PBMCs (Milecell Biotechnologies)
T4 sequence (Q13422 whole entry): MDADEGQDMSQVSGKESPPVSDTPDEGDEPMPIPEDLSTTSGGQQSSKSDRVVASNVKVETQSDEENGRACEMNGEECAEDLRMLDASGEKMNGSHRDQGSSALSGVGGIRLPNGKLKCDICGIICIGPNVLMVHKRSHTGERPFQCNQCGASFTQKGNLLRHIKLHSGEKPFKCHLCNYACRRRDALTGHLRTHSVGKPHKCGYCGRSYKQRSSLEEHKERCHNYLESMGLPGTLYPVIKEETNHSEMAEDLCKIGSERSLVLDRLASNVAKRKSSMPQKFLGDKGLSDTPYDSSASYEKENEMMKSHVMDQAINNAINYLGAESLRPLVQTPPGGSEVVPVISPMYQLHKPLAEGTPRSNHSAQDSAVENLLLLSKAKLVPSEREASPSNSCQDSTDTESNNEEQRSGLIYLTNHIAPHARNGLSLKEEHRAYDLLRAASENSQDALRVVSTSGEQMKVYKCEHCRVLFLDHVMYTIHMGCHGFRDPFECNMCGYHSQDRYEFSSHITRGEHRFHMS
T4 sequence (Q96SW2 whole entry): as the sequence (Q96SW2 whole entry) above
T4 sequence (Q16531 whole entry partner): as the sequence (Q16531 whole entry partner) above

[7] = target: T5, IKZF2 (Homo sapiens, UniProt Q96SW2+Q9UKS7); test: as above; type: cell-based
T5 construct: effects of the compounds of the present disclosure on the expression of target proteins in cells; endogenous in cells; host or cells: human PBMCs (Milecell Biotechnologies)
T5 sequence (Q9UKS7 whole entry): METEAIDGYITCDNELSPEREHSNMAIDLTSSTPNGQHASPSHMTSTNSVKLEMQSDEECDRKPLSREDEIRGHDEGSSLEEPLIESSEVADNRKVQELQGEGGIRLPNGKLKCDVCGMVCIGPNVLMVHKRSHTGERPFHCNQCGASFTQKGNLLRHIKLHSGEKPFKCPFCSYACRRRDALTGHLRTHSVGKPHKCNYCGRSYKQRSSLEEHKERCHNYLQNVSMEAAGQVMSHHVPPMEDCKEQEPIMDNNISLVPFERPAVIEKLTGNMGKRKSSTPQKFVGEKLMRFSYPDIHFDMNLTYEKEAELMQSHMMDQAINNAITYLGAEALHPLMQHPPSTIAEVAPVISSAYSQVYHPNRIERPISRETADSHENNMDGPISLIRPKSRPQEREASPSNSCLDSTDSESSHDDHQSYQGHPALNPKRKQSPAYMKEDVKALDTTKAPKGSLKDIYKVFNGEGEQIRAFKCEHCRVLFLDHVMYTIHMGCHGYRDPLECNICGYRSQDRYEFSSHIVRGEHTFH
T5 sequence (Q96SW2 whole entry): as the sequence (Q96SW2 whole entry) above
T5 sequence (Q16531 whole entry partner): as the sequence (Q16531 whole entry partner) above

[8] = target: T6, CK1α (Homo sapiens, UniProt P48729+Q96SW2); test: as above; type: cell-based
T6 construct: effects of the compounds of the present disclosure on the expression of target proteins in cells; endogenous in cells; host or cells: human PBMCs (Milecell Biotechnologies)
T6 sequence (P48729 whole entry): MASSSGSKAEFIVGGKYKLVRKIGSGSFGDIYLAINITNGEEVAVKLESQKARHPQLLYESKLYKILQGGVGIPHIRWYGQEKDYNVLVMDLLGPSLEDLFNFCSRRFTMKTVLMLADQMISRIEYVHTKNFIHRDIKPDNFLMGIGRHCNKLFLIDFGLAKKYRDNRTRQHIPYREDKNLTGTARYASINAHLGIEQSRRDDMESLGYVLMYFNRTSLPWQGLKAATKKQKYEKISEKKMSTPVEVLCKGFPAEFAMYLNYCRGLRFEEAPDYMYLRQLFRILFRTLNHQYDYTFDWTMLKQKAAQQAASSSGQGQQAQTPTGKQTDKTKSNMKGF
T6 sequence (Q96SW2 whole entry): as the sequence (Q96SW2 whole entry) above
T6 sequence (Q16531 whole entry partner): as the sequence (Q16531 whole entry partner) above

[9] = tested on: Human acute myeloid leukemia cell line: Kasumi-1; test: Tumor cell proliferation inhibition (CellTiter-Meiluncell luminescent cell viability assay); conditions: Kasumi 1, 96 h; for inhibition at 0.01 µM: read-out: Inhibition Rate at 10 nM (%); for inhibition at 0.5 µM: read-out: Inhibition Rate at 500 nM (%)
[10] = tested on: GSPT1; test: Western blot, degradation of substrate protein in hPBMCs; type: cell-based, Human
[11] = tested on: Human T cell acute lymphoblastic leukemia cell (CCRF-CEM); test: Tumor cell proliferation inhibition (CellTiter-Meiluncell luminescent cell viability assay); conditions: 96 h; for inhibition at 0.01 µM: read-out: Inhibition Rate at 10 nM (%); for inhibition at 0.5 µM: read-out: Inhibition Rate at 500 nM (%)
Description: The tumor cells used herein were cultured in a cell culture medium listed in table 2 at 37°C in an incubator with 5% CO2. Prior to experimentation, all cell lines used were correctly identified by STR profiling, and tested negative for mycoplasma contamination using a mycoplasma detection kit through routine screenings.
The IC50 values of the compounds of the present disclosure (including the compounds in Table 1 and Examples) were determined using the CellTiter-Meiluncell Luminescent Cell Viability Assay Kit from Dalian Meilun Biotech Co., Ltd. The detailed procedure is as follows: Tumor cells were seeded in 96-well cell culture plates at the densities specified in Table 3. On the following day, the test compounds of the present disclosure were subjected to serial dilution. The dilution can be performed according to one of the following two methods: • (1) The first dilution method: The test compounds of the present disclosure (including the compounds in Table 1 and Examples) were subjected to 5-fold serial dilutions starting from a highest concentration of 2000 µM, resulting in a total of 9 concentrations from high to low (2000, 400, 80, 16, 3.2, 0.64, 0.128, 0.0256, 0.00512 µM). Subsequently, 0.5 µL of the test compound dilution was transferred into the 96-well plate containing the cells, with each well containing 100 µL of cell culture medium. […] Into the 96-well plate, the diluted test compounds and corresponding detection reagents were added, resulting in final test compound concentrations of 500 nM and 10 nM, respectively. The experimental procedure is described below using the diluted 2 µM test compound as an example.
0.5 µL of the aforementioned diluted compound of the present disclosure (including the compounds in Table 1 and Examples) was added to the seeded cells in 100 µL of medium, yielding a final test compound concentration of 10 nM. After the cells were treated with the compounds of the present disclosure for a specified period, the cell viability assay reagent was added to the culture medium according to the kit's instructions to determine cell viability. […] All controls were treated using the same procedure as the compounds of the present disclosure. The growth inhibition curves for the compounds of the present disclosure were plotted using Prism GraphPad software, and the IC50 values were calculated therefrom.

[12] = tested on: Human multiple myeloma cell (MM.1S); test: as above; conditions: for inhibition at 0.01 µM / inhibition at 0.5 µM: Homo sapiens, MM1.S, 96 h; for inhibition at 0.01 µM: read-out: Inhibition Rate at 10 nM (%); for inhibition at 0.5 µM: read-out: Inhibition Rate at 500 nM (%)
[13] = tested on: Human myeloid monocytic leukemia cell (MV-4-11); test: as above; conditions: MV4-11, 96 h; for inhibition at 0.01 µM: read-out: Inhibition Rate at 10 nM (%); for inhibition at 0.5 µM: read-out: Inhibition Rate at 500 nM (%)
[14] = tested on: Human multiple myeloma peripheral blood B lymphocyte cell (RPMI-8226); test: as above; conditions: RPMI-8226, 96 h; for inhibition at 0.01 µM: read-out: Inhibition Rate at 10 nM (%); for inhibition at 0.5 µM: read-out: Inhibition Rate at 500 nM (%)
[15] = 24 hours treatment, compounds at 50 nM and 500 nM (concentration behind the class not stated)
[16] = Western blot, 24 hours of compound treatment, compounds tested at 50 nM and 500 nM (concentration for the table not stated)

Row | inhibition at 0.5 µM [2] [%] | inhibition at 2 µM [2] [%] | Compound | inhibition at 0.01 µM [1] [%] | inhibition at 0.5 µM [1] [%] | inhibition at 0.01 µM [3] [%] | inhibition at 0.5 µM [3] [%] | IKZF3 substrate protein remaining % [4, 15] | Wee1 substrate protein remaining % [5, 15] | IKZF 1 substrate protein remaining % [6, 15] | IKZF2 substrate protein remaining % [7, 15] | CK1α substrate protein remaining % [8, 15] | inhibition at 0.01 µM [9] [%] | inhibition at 0.5 µM [9] [%] | GSPT1 substrate protein remaining % [10, 15] | inhibition at 0.01 µM [11] [%] | inhibition at 0.5 µM [11] [%] | inhibition at 0.01 µM [12] [%] | inhibition at 0.5 µM [12] [%] | inhibition at 0.01 µM [13] [%] | inhibition at 0.5 µM [13] [%] | other results
1 | 60 to 80 | 80 to 100 | O=C1CCC(N2Cc3cc(CN4CCC(c5ccsc5)CC4)ccc3C2=S)C(=O)N1 (centres unmarked) [GT-08324, 3-(5-((4-(thiophen-3-yl)piperidin-1-yl)methyl)-1-thioxoisoindolin-2-yl)piperidine-2,6-dione] | -5 to 0 | 40 to 50 | 10 to 20 | 80 to 100 | B (80%< substrate protein remaining %≤ 100%) | A (0% ≤ substrate protein remaining % ≤ 80%) | A (0% ≤ substrate protein remaining % ≤ 80%) | A (0% ≤ substrate protein remaining % ≤ 80%) | A (0% ≤ substrate protein remaining % ≤ 80%) | 0 to 5 | 60 to 70 | A (0% ≤ substrate protein remaining % ≤ 80%) | 5 to 10 | 80 to 100 | 20 to 30 | 80 to 100 | 30 to 40 | 80 to 100 | –
2 | 40 to 53 | 80 to 100 | O=C1CCC(N2Cc3cc(CN4CCC(c5cccc(F)c5F)CC4)ccc3C2=S)C(=O)N1 (centres unmarked) [GT-08331, 3-(5-((4-(2,3-difluorophenyl)piperidin-1-yl)methyl)-1-thioxoisoindolin-2-yl)piperidine-2,6-dione] | 5 to 10 | 50 to 60 | 10 to 20 | 80 to 100 | B (80%< substrate protein remaining %≤ 100%) | A (0% ≤ substrate protein remaining % ≤ 80%) | A (0% ≤ substrate protein remaining % ≤ 80%) | A (0% ≤ substrate protein remaining % ≤ 80%) | A (0% ≤ substrate protein remaining % ≤ 80%) | 5 to 10 | 70 to 80 | A (0% ≤ substrate protein remaining % ≤ 80%) | 5 to 10 | 80 to 100 | 10 to 20 | 80 to 100 | – | – | inhibition at 0.01 µM [14]: 10 to 20%; inhibition at 0.5 µM [14]: 40 to 50%

Continued, compound first:

Row | Compound | inhibition at 0.5 µM [2] [%] | inhibition at 2 µM [2] [%] | inhibition at 0.01 µM [1] [%] | inhibition at 0.5 µM [1] [%] | inhibition at 0.01 µM [3] [%] | inhibition at 0.5 µM [3] [%] | IKZF3 substrate protein remaining % [4, 15] | Wee1 substrate protein remaining % [5, 15] | IKZF 1 substrate protein remaining % [6, 15] | IKZF2 substrate protein remaining % [7, 15] | CK1α substrate protein remaining % [8, 15] | inhibition at 0.01 µM [9] [%] | inhibition at 0.5 µM [9] [%] | GSPT1 substrate protein remaining % [10, 15] | inhibition at 0.01 µM [11] [%] | inhibition at 0.5 µM [11] [%] | inhibition at 0.01 µM [12] [%] | inhibition at 0.5 µM [12] [%] | inhibition at 0.01 µM [13] [%] | inhibition at 0.5 µM [13] [%] | other results
3 | Cc1ccc(Sc2ccccc2N2CCN(Cc3cccc4c3CN(C3CCC(=O)NC3=O)C4=S)CC2)c(C)c1 (centres unmarked) [GT-08332, 3-(4-((4-(2-((2,4-dimethylphenyl)thio)phenyl)piperazin-1-yl)methyl)-1-thioxoisoindolin-2-yl)piperidine-2,6-dione] | – | – | 0 to 5 | 80 to 100 | -5 to 0 | 80 to 100 | B (80%< substrate protein remaining %≤ 100%) | A (0% ≤ substrate protein remaining % ≤ 80%) | A (0% ≤ substrate protein remaining % ≤ 80%) | A (0% ≤ substrate protein remaining % ≤ 80%) | A (0% ≤ substrate protein remaining % ≤ 80%) | -5 to 0 | 80 to 100 | A (0% ≤ substrate protein remaining % ≤ 80%) | -5 to 0 | 80 to 100 | 10 to 20 | 80 to 100 | -5 to 0 | 60 to 80 | –
4 | O=C1CCC(N2Cc3cc(CN4CCN(c5ccccc5)CC4)ccc3C2=S)C(=O)N1 (centres unmarked) [GT-08205, 3-(5-((4-phenylpiperazin-1-yl)methyl)-1-thioxoisoindolin-2-yl)piperidine-2,6-dione] | 60 to 80 | 80 to 100 | 5 to 10 | 30 to 40 | 0 to 5 | 60 to 70 | – | – | – | – | – | 10 to 20 | 40 to 50 | – | 10 to 20 | 60 to 70 | 10 to 20 | – | 5 to 10 | 80 to 100 | IKZF3 substrate protein remaining % [4, 16]: A (0% ≤ substrate protein remaining % ≤ 80%); Wee1 substrate protein remaining % [5, 16]: A (0% ≤ substrate protein remaining % ≤ 80%); IKZF 1 substrate protein remaining % [6, 16]: B (80%< substrate protein remaining %≤ 100%); IKZF2 substrate protein remaining % [7, 16]: A (0% ≤ substrate protein remaining % ≤ 80%); CK1α substrate protein remaining % [8, 16]: B (80%< substrate protein remaining %≤ 100%); GSPT1 substrate protein remaining % [10, 16]: A (0% ≤ substrate protein remaining % ≤ 80%); Inhibition Rate at 500 nM (%) ([12]; MM.1S, 500 nM, 96 hours): la8
5 | O=C1CCC(N2Cc3cc(CN4CC=C(c5ccoc5)CC4)ccc3C2=S)C(=O)N1 (centres unmarked) [GT-08328, 3-(5-((4-(furan-3-yl)-3,6-dihydropyridin-1(2H)-yl)methyl)-1-thioxoisoindolin-2-yl)piperidine-2,6-dione] | 60 to 80 | 80 to 100 | 0 to 5 | 40 to 50 | 10 to 20 | 80 to 100 | B (80%< substrate protein remaining %≤ 100%) | A (0% ≤ substrate protein remaining % ≤ 80%) | B (80%< substrate protein remaining %≤ 100%) | B (80%< substrate protein remaining %≤ 100%) | A (0% ≤ substrate protein remaining % ≤ 80%) | 5 to 10 | 60 to 70 | A (0% ≤ substrate protein remaining % ≤ 80%) | 10 to 20 | 80 to 100 | 50 to 60 | 80 to 100 | 40 to 60 | 80 to 100 | –
6 | COc1ccccc1N1CCN(Cc2cccc3c2CN(C2CCC(=O)NC2=O)C3=S)CC1 (centres unmarked) [GT-08260, 3-(4-((4-(2-methoxyphenyl)piperazin-1-yl)methyl)-1-thioxoisoindolin-2-yl)piperidine-2,6-dione] | 60 to 80 | 80 to 100 | – | – | – | – | – | – | – | – | – | – | – | – | 20 to 30 | 40 to 50 | – | – | – | – | inhibition at 0.01 µM [14]: 70 to 80%; inhibition at 0.5 µM [14]: 70 to 80%; IKZF3 substrate protein remaining % [4, 16]: B (80%< substrate protein remaining %≤ 100%); Wee1 substrate protein remaining % [5, 16]: A (0% ≤ substrate protein remaining % ≤ 80%); IKZF 1 substrate protein remaining % [6, 16]: B (80%< substrate protein remaining %≤ 100%); IKZF2 substrate protein remaining % [7, 16]: B (80%< substrate protein remaining %≤ 100%); CK1α substrate protein remaining % [8, 16]: B (80%< substrate protein remaining %≤ 100%); GSPT1 substrate protein remaining % [10, 16]: A (0% ≤ substrate protein remaining % ≤ 80%)
7 | O=C1CCC(N2Cc3cc(CN4CCN(c5cccc(F)c5F)CC4)ccc3C2=S)C(=O)N1 (centres unmarked) [GT-08210, 3-(5-((4-(2,3-difluorophenyl)piperazin-1-yl)methyl)-1-thioxoisoindolin-2-yl)piperidine-2,6-dione] | 60 to 80 | 80 to 100 | 20 to 30 | 60 to 70 | 10 to 20 | 80 to 100 | – | – | – | – | – | 20 to 30 | 80 to 100 | – | – | – | 20 to 30 | 80 to 100 | 5 to 10 | 80 to 100 | IKZF3 substrate protein remaining % [4, 16]: A (0% ≤ substrate protein remaining % ≤ 80%); Wee1 substrate protein remaining % [5, 16]: A (0% ≤ substrate protein remaining % ≤ 80%); IKZF 1 substrate protein remaining % [6, 16]: A (0% ≤ substrate protein remaining % ≤ 80%); IKZF2 substrate protein remaining % [7, 16]: A (0% ≤ substrate protein remaining % ≤ 80%); CK1α substrate protein remaining % [8, 16]: B (80%< substrate protein remaining %≤ 100%); GSPT1 substrate protein remaining % [10, 16]: A (0% ≤ substrate protein remaining % ≤ 80%)

Source: patent EP4745135A1 (Gluetacs Therapeutics (Shanghai) Co., Ltd., priority 2023, dated 2025)
